Assay results: ChEMBL document CHEMBL1201862, “PubChem BioAssay data set” (2004)
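1) Cells in 96-well plates. 2) Compound, 48 h, 5 concentrations. 3) Linear interpolation between surrounding doses. 4) Unreached endpoint = highest concentration. The concentration for 50% growth inhibition is given as GI50.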 Active and inactive are the calls of the source. Rule as the data show it: active = GI50 up to about 1.1 µM and inactive = higher.

Key:
Assay in all cases: inhibition of tumour cell growth, NCI panel, 48 h
OVCAR-4 = test system: OVCAR-4
OVCAR-5 = test system: OVCAR-5
SK-MEL-2 = test system: SK-MEL-2
UACC-257 = test system: UACC-257
Malme-3M = test system: Malme-3M
UACC-62 = test system: UACC-62
SF-295 = test system: SF-295
SK-MEL-5 = test system: SK-MEL-5
HL-60 = test system: HL-60
IGROV-1 = test system: IGROV-1
ACHN = test system: ACHN
CAKI-1 = test system: CAKI-1
SNB-19 = test system: SNB-19
RPMI-8226 = test system: RPMI-8226
NCI-H23 = test system: NCI-H23

| Compound | GI50 (OVCAR-4) | GI50 (OVCAR-5) | GI50 (SK-MEL-2) | GI50 (UACC-257) | GI50 (Malme-3M) | GI50 (UACC-62) | GI50 (SF-295) | GI50 (SK-MEL-5) | GI50 (HL-60) | GI50 (IGROV-1) | GI50 (ACHN) | GI50 (CAKI-1) | GI50 (SNB-19) | GI50 (RPMI-8226) | GI50 (NCI-H23) |
| --- | --- | --- | --- | --- | --- | --- | --- | --- | --- | --- | --- | --- | --- | --- | --- |
| O=C(c1c(O)cc(O)cc1O)C1Cc2ccccc21 (stereo not drawn) | 30.4 µM (inactive) | > 100 µM (inactive) | > 100 µM (inactive) | > 100 µM (inactive) | > 100 µM (inactive) | > 100 µM (inactive) | 42.3 µM (inactive) | > 100 µM (inactive) | 74 µM (inactive) | > 100 µM (inactive) | > 100 µM (inactive) | 39.5 µM (inactive) | 64 µM (inactive) | 58.1 µM (inactive) |  |
| CC(=O)OC1(C#N)CC2OC1C1C2N1C(=O)OC(C)(C)C (stereo not drawn) | > 100 µM (inactive) | > 100 µM (inactive) | > 100 µM (inactive) |  | > 100 µM (inactive) | > 100 µM (inactive) |  | > 100 µM (inactive) | > 100 µM (inactive) | > 100 µM (inactive) | > 100 µM (inactive) | > 100 µM (inactive) | > 100 µM (inactive) | > 100 µM (inactive) | > 100 µM (inactive) |
| Cc1c2cc[n+](C)cc2c(C)c2c1[nH]c1ccc(OCC(F)(F)F)cc12 | 2.45 µM (inactive) |  | 3.4 µM (inactive) |  | 2.02 µM (inactive) | 6.82 µM (inactive) | 0.327 µM (active) | 1.55 µM (inactive) |  | 2.27 µM (inactive) |  | 8.34 µM (inactive) | 0.817 µM (active) |  | 1.23 µM (inactive) |
| O=C(Nc1c(O)[nH]c(=S)[nH]c1=O)c1ccccn1 | > 100 µM (inactive) | > 100 µM (inactive) | > 100 µM (inactive) | > 100 µM (inactive) | > 100 µM (inactive) | > 100 µM (inactive) | > 100 µM (inactive) | > 100 µM (inactive) | > 100 µM (inactive) | > 100 µM (inactive) | > 100 µM (inactive) | > 100 µM (inactive) | > 100 µM (inactive) | > 100 µM (inactive) | > 100 µM (inactive) |
| CNC(=O)OCc1nc(SSc2nc(COC(=O)NC)c(COC(=O)NC)n2C)n(C)c1COC(=O)NC | > 100 µM (inactive) | > 100 µM (inactive) | > 100 µM (inactive) | > 100 µM (inactive) | > 100 µM (inactive) | > 100 µM (inactive) | > 100 µM (inactive) | > 100 µM (inactive) | > 100 µM (inactive) | > 100 µM (inactive) | > 100 µM (inactive) | > 100 µM (inactive) | > 100 µM (inactive) | > 100 µM (inactive) | > 100 µM (inactive) |
| CC(=O)c1c2c(cc3c1CC1(C3)Cc3cc4c(c(C(C)=O)c3C1)CCC4)CCC2 | > 100 µM (inactive) | > 100 µM (inactive) |  | > 100 µM (inactive) | 40.3 µM (inactive) | > 100 µM (inactive) | > 100 µM (inactive) | > 100 µM (inactive) | 19.3 µM (inactive) | > 100 µM (inactive) | > 100 µM (inactive) | > 100 µM (inactive) | > 100 µM (inactive) |  | > 100 µM (inactive) |
| CC(=O)N1CCC2(c3ccccc3N(C(C)=O)C2c2ccc(O)cc2)C1C(=O)O (stereo not drawn) |  | > 100 µM (inactive) | > 100 µM (inactive) | > 100 µM (inactive) | > 100 µM (inactive) | > 100 µM (inactive) | > 100 µM (inactive) | > 100 µM (inactive) | > 100 µM (inactive) |  | > 100 µM (inactive) |  | > 100 µM (inactive) | > 100 µM (inactive) | > 100 µM (inactive) |
| CC(SC(=O)Nc1ccc(/N=N/c2ccccc2)cc1)C(=O)O (stereo not drawn) | > 100 µM (inactive) | > 100 µM (inactive) | > 100 µM (inactive) | 98.6 µM (inactive) |  | 28.8 µM (inactive) | 56.4 µM (inactive) |  | 38.6 µM (inactive) | 24.3 µM (inactive) | 57.9 µM (inactive) | > 100 µM (inactive) | > 100 µM (inactive) | > 100 µM (inactive) | > 100 µM (inactive) |
| COC(=O)C1=C(C(=O)OC)C2(C3C(SC)=CC(C)(C)CC3S1)N(Cc1ccccc1)CCN2Cc1ccccc1 (stereo not drawn) | > 100 µM (inactive) | > 100 µM (inactive) | > 100 µM (inactive) | > 100 µM (inactive) | > 100 µM (inactive) | > 100 µM (inactive) | > 100 µM (inactive) | 65.5 µM (inactive) |  | > 100 µM (inactive) | 48.2 µM (inactive) | > 100 µM (inactive) | > 100 µM (inactive) | 18.3 µM (inactive) | > 100 µM (inactive) |
| O=c1cc2ccccc2nn1Cc1cccc(Cl)c1 | > 100 µM (inactive) | > 100 µM (inactive) | > 100 µM (inactive) | > 100 µM (inactive) | > 100 µM (inactive) | > 100 µM (inactive) | > 100 µM (inactive) | 37.8 µM (inactive) |  | > 100 µM (inactive) | > 100 µM (inactive) | > 100 µM (inactive) | > 100 µM (inactive) | 30.7 µM (inactive) | 57.3 µM (inactive) |
